Legend:
Format in all cases: in vivo
STZ mice [1] = test: Blood glucose in mouse pancreatic islet β-cell injury model (STZ ICR mice), limonoid/rosiglitazone; conditions: single agent 0.02 g/kg per day gavage, two weeks, 1 h after last administration, mean ± SD
Procedure: It should be noted that the conditions for raising the mice were as follows: the temperature was 23±1° C., the humidity was 55±10%, the lights were turned on between 7 am and 7 pm (the lights were turned off at other time), and the mice were allowed to freely take in water and feed. The experimental feed was mouse growth-stable feed (GB M2118), and the daily feeding and management of the animals were under the responsibility of the animal security department, which provided the animals with sufficient diet and fresh drinking water daily.
SPSS 16.0 software was used for statistical analysis. The data were expressed as mean and standard deviation.

db/db mice [2] = test: Blood glucose in mouse type II diabetes model (db/db mice), limonoid/rosiglitazone; conditions: single agent 0.2 g/kg per day gavage, two weeks, 1 h after last administration, mean ± SD
Text: (§1) Effects of limonoid compound, rosiglitazone or combination thereof on blood glucose and insulin in mouse type II diabetes model
(§2) In the present embodiment, the limonoid compound was selected from nomilin, deacetylnomilin, nomilin acid, deacetylnomilin acid glycoside, and rosiglitazone single administration group, nomilin single administration group, deacetylnomilin single administration group, nomilin acid single administered group, deacetylnomilin acid glycoside single administration group, and respective combination thereof with rosiglitazone administration groups were set.
(§3) Conditions for experimental feeding: as type II diabetes model mice, 6-week-old SPF-grade db/db mice were purchased from the Nanjing Model Biology Institute, and subjected to experimental feeding after 7 days of preliminary feeding. […]
(§4) Two weeks later, the blood glucose values were measured by tail trimming method (Johnson's blood glucose meter) 1 h after the last administration, and serum insulin levels were measured with blood collected from orbital cavity by enzyme-linked immunosorbent assay (Elisa), and the average of each group was obtained. […] The data were expressed as mean and standard deviation.

db/db mice [3] = test: Serum insulin (Elisa) in mouse type II diabetes model (db/db mice), limonoid/rosiglitazone; conditions: single agent 0.2 g/kg per day gavage, two weeks, mean ± SD
Text: as §1, §2, §3, §4

db/db mice [4] = test: Blood glucose in mouse type II diabetes model (db/db mice), limonoid/pioglitazone; conditions: single agent 0.04 g/kg per day gavage, two weeks, 1 h after last administration, mean ± SD
Text: (§5) Effects of limonoid compound, pioglitazone or combination thereof on blood glucose and leptin in mouse type II diabetes model In the present example, db/db mice (line name BKS.Cg-Dock7m^+/+Lepr^db/Nju) were used to perform hypoglycemic efficacy evaluation test of animals (blood glucose level and leptin). The limonoid compound was selected from obacunone, isoobacunoic acid and obacunone glycoside, and pioglitazone single administration group, obacunone single administration group, isoobacunoic acid single administration group, obacunone glycoside single administered group, and respective combination thereof with pioglitazone administration groups were set. Conditions for experimental feeding: as type II diabetes model mice, 6-week-old SPF-grade db/db mice were purchased from the Nanjing Model Biology Institute, and subjected to experimental feeding after 7 days of preliminary feeding. […] The experimental feed was mouse growth-stable feed (GB […]), and the daily feeding and management of the animals were under the responsibility of the animal security department, which provided the animals with sufficient diet and fresh drinking water daily. […] The data were expressed as mean and standard deviation. The data before and after were analyzed by t-test, and P <0.05 was considered statistically significant.

db/db mice [5] = test: Serum leptin (Elisa) in mouse type II diabetes model (db/db mice), limonoid/pioglitazone; conditions: single agent 0.04 g/kg per day gavage, two weeks, mean ± SD
Text: as §5

STZ mice [6] = test: Blood glucose in mouse pancreatic islet β-cell injury model (STZ ICR mice), limonoid/pioglitazone; conditions: single agent 0.1 g/kg per day gavage, two weeks, 1 h after last administration, mean ± SD
Text: Effects of limonoid compound, pioglitazone or combination thereof on blood glucose in mouse pancreatic islet β-cell injury model In this example, a mouse pancreatic islet β-cell injury model was established by modeling ICR mice with streptozotocin (STZ) (Li Nan et al., Protective effect of pine pollen on kidney damage in diabetic nephropathy mice, Science and Technology Review, 2014, 32 (4⁄5): 95-99), and used to complete the evaluation of hypoglycemic effect in animals (this model could simulate pancreatic islet β-cell damage state of type I and type II diabetics). The limonoid compound was selected from the group consisting of […], and […] glycoside, and pioglitazone single administration group, […] single administration group, […] single administration group, […] glycoside singe administration group, and respective combination thereof with pioglitazone administration groups were set. Conditions of experimental feeding: […] The experimental feed was mouse growth-stable feed (GB […]), and the daily feeding and management of the animals were under the responsibility of the animal security department, which provided the animals with sufficient diet and fresh drinking water daily. […] The data were expressed as mean and standard deviation. The data before and after were analyzed by t-test, and P <0.05 was considered statistically significant.

STZ mice [7] = test: Blood glucose in mouse type II diabetes model with pancreatic islet damage and obesity (STZ + high-fat diet ICR mice), limonoid/pioglitazone; conditions: single agent 0.5 g/kg per day gavage, two weeks, 1 h after last administration, mean ± SD
Text: Effects of limonoid compound, pioglitazone or combination thereof on blood glucose in mouse type II diabetes model with pancreatic islet damage and obesity In this example, a mouse model of type II diabetes with pancreatic islet damage and obesity was established by multiple modeling ICR mice with a small dose of streptozotocin (STZ), following with continuous high-fat diets (referring to literature: […] Conditions of experimental feeding: […] The experimental feed was mouse growth-stable feed (GB […]), and the daily feeding and management of the animals were under the responsibility of the animal security department, which provided the animals with sufficient diet and fresh drinking water daily. Experimental grouping: 15 male mice were randomly selected as the normal control group, and the remaining mice were subjected to a high-fat diet (high-fat diet formula: cholesterol 1%, egg yolk powder 10%, lard oil 10%, and basic feed 79%, for establishing an obesity mouse model) for consecutive 4 weeks and intraperitoneal injection of STZ at a dose of 35mg/kg for three consecutive days. […] SPSS 16.0 software was used for statistical analysis. The data were expressed as mean and standard deviation. The data before and after were analyzed by t-test, and P <0.05 was considered statistically significant.

For `CN(CCOc1ccc(CC2SC(=O)NC2=O)cc1)c1ccccn1` (stereo not shown) [Rosiglitazone, rosiglitazone], the Blood glucose value (STZ mice [1]) was 17.9 ± 3.5 mmol/L, the Blood glucose value (db/db mice [2]) was 10.0 ± 2.5 mmol/L and the Insulin (db/db mice [3]) was 7.54 ± 1.21 pg/mL.
Molecule `CCc1ccc(CCOc2ccc(CC3SC(=O)NC3=O)cc2)nc1` (stereo not shown) [Pioglitazone, pioglitazone] has a Blood glucose value (db/db mice [4]) of 11.5 ± 3.0 mmol/L, a Leptin (db/db mice [5]) of 24.55 ± 5.14 pg/mL and a Blood glucose value (STZ mice [6]) of 12.8 ± 3.1 mmol/L. The Blood glucose value (STZ mice [7]) was 9.9 ± 2.1 mmol/L.

Source: US20220288046A1, “COMBINATION PRODUCT CONTAINING LIMONOID COMPOUND AND THIAZOLIDINEDIONE COMPOUND” (ZHEJIANG YANGSHENGTANG INSTITUTE OF NATURAL MEDICATION CO., …, priority 2019, published 2022)
